# Reference: ChEMBL document CHEMBL1201862, “PubChem BioAssay data set” (2004)
#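 These data come from cells grown in 96-well plates and exposed to compound for 48 hours at five concentrations. GI50 = concentration required for 50% inhibition of growth.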 Active and inactive are the calls of the source. Cut-off read from the data, not from the text of the source: active = GI50 up to about 1.1 µM and inactive = higher.
# What was measured:
# Assay in all cases: NCI tumour cell line growth inhibition, 48 h
# NCI-H522 = test system: NCI-H522
# DMS-114 = test system: DMS-114
# TK-10 = test system: TK-10
# SW-620 = test system: SW-620
# A498 = test system: A498
# HOP-62 = test system: HOP-62
# OVCAR-5 = test system: OVCAR-5
# HOP-18 = test system: HOP-18
# KM-20L2 = test system: KM-20L2
# XF498 = test system: XF498
# UO-31 = test system: UO-31
# OVCAR-3 = test system: OVCAR-3
# IGROV-1 = test system: IGROV-1
# MOLT-4 = test system: MOLT-4
# SNB-78 = test system: SNB-78
# DLD-1 = test system: DLD-1
# K562 = test system: K562
# HCC 2998 = test system: HCC 2998
# SN12C = test system: SN12C
# SNB-19 = test system: SNB-19
# Malme-3M = test system: Malme-3M
# SK-OV-3 = test system: SK-OV-3
# HT-29 = test system: HT-29
# SF-268 = test system: SF-268
# UACC-257 = test system: UACC-257
# DMS-273 = test system: DMS-273
# UACC-62 = test system: UACC-62
# KM12 = test system: KM12
# SF-295 = test system: SF-295
# HOP-92 = test system: HOP-92
# NCI-H23 = test system: NCI-H23
# OVCAR-8 = test system: OVCAR-8
# HCT-116 = test system: HCT-116
# U-251 = test system: U-251
# ACHN = test system: ACHN
# EKVX = test system: EKVX
# SK-MEL-28 = test system: SK-MEL-28
# NCI-H460 = test system: NCI-H460
# CAKI-1 = test system: CAKI-1
# RPMI-8226 = test system: RPMI-8226
# CCRF-CEM = test system: CCRF-CEM
# LOX IMVI = test system: LOX IMVI
# 786-0 = test system: 786-0
# SF-539 = test system: SF-539
# SK-MEL-2 = test system: SK-MEL-2
# HCT-15 = test system: HCT-15
# M14 = test system: M14
# OVCAR-4 = test system: OVCAR-4
# SK-MEL-5 = test system: SK-MEL-5
# A549 = test system: A549
# M19-MEL = test system: M19-MEL
# LXFL 529 = test system: LXFL 529
# SNB-75 = test system: SNB-75
# RXF 393 = test system: RXF 393
# COLO 205 = test system: COLO 205
# NCI-H226 = test system: NCI-H226
# SR = test system: SR
# HL-60 = test system: HL-60
smiles,measurement,setting,value
COc1ccc2nc3cc(Cl)ccc3c(SCC(=O)Nc3ccccc3-c3ccccc3NC(=O)CSc3c4ccc(Cl)cc4nc4ccc(OC)cc34)c2c1,GI50,NCI-H522,> 100 µM (inactive)
same,GI50,DMS-114,> 100 µM (inactive)
same,GI50,TK-10,> 100 µM (inactive)
same,GI50,SW-620,> 100 µM (inactive)
same,GI50,A498,> 100 µM (inactive)
same,GI50,HOP-62,> 100 µM (inactive)
same,GI50,OVCAR-5,> 100 µM (inactive)
same,GI50,HOP-18,> 100 µM (inactive)
same,GI50,KM-20L2,> 100 µM (inactive)
same,GI50,XF498,> 100 µM (inactive)
same,GI50,UO-31,> 100 µM (inactive)
same,GI50,OVCAR-3,> 100 µM (inactive)
same,GI50,IGROV-1,> 100 µM (inactive)
same,GI50,MOLT-4,> 100 µM (inactive)
same,GI50,SNB-78,> 100 µM (inactive)
same,GI50,DLD-1,> 100 µM (inactive)
same,GI50,K562,> 100 µM (inactive)
same,GI50,HCC 2998,> 100 µM (inactive)
same,GI50,SN12C,> 100 µM (inactive)
same,GI50,SNB-19,> 100 µM (inactive)
same,GI50,Malme-3M,> 100 µM (inactive)
same,GI50,SK-OV-3,> 100 µM (inactive)
same,GI50,HT-29,> 100 µM (inactive)
same,GI50,SF-268,> 100 µM (inactive)
same,GI50,UACC-257,> 100 µM (inactive)
same,GI50,DMS-273,> 100 µM (inactive)
same,GI50,UACC-62,> 100 µM (inactive)
same,GI50,KM12,> 100 µM (inactive)
same,GI50,SF-295,> 100 µM (inactive)
same,GI50,HOP-92,> 100 µM (inactive)
same,GI50,NCI-H23,> 100 µM (inactive)
same,GI50,OVCAR-8,> 100 µM (inactive)
same,GI50,HCT-116,> 100 µM (inactive)
same,GI50,U-251,> 100 µM (inactive)
same,GI50,ACHN,> 100 µM (inactive)
same,GI50,EKVX,> 100 µM (inactive)
same,GI50,SK-MEL-28,> 100 µM (inactive)
same,GI50,NCI-H460,> 100 µM (inactive)
same,GI50,CAKI-1,> 100 µM (inactive)
same,GI50,RPMI-8226,> 100 µM (inactive)
same,GI50,CCRF-CEM,> 100 µM (inactive)
same,GI50,LOX IMVI,> 100 µM (inactive)
same,GI50,786-0,> 100 µM (inactive)
same,GI50,SF-539,> 100 µM (inactive)
same,GI50,SK-MEL-2,> 100 µM (inactive)
same,GI50,HCT-15,> 100 µM
same,GI50,M14,> 100 µM (inactive)
same,GI50,OVCAR-4,> 100 µM (inactive)
same,GI50,SK-MEL-5,> 100 µM (inactive)
same,GI50,A549,> 100 µM (inactive)
same,GI50,M19-MEL,> 100 µM (inactive)
same,GI50,LXFL 529,> 100 µM (inactive)
same,GI50,SNB-75,> 100 µM (inactive)
same,GI50,RXF 393,> 100 µM (inactive)
same,GI50,COLO 205,> 100 µM (inactive)
same,GI50,NCI-H226,> 100 µM (inactive)
O=C1C2=C(N[C@@H](c3ccccc3)[C@H](c3ccccc3)N2)C(=O)c2ccccc21,GI50,NCI-H522,> 100 µM (inactive)
same,GI50,DMS-114,> 100 µM (inactive)
same,GI50,TK-10,> 100 µM (inactive)
same,GI50,SW-620,> 100 µM (inactive)
same,GI50,A498,> 100 µM (inactive)
same,GI50,HOP-62,> 100 µM (inactive)
same,GI50,OVCAR-5,> 100 µM (inactive)
same,GI50,XF498,> 100 µM (inactive)
same,GI50,UO-31,> 100 µM (inactive)
same,GI50,OVCAR-3,> 100 µM (inactive)
same,GI50,IGROV-1,> 100 µM (inactive)
same,GI50,MOLT-4,> 100 µM (inactive)
same,GI50,SNB-78,> 100 µM (inactive)
same,GI50,SR,> 100 µM (inactive)
same,GI50,DLD-1,> 100 µM (inactive)
same,GI50,K562,> 100 µM (inactive)
same,GI50,HCC 2998,> 100 µM (inactive)
same,GI50,SN12C,> 100 µM (inactive)
same,GI50,SNB-19,> 100 µM (inactive)
same,GI50,Malme-3M,> 100 µM (inactive)
same,GI50,SK-OV-3,> 100 µM (inactive)
same,GI50,HT-29,> 100 µM (inactive)
same,GI50,SF-268,> 100 µM (inactive)
same,GI50,UACC-257,> 100 µM (inactive)
same,GI50,DMS-273,> 100 µM (inactive)
same,GI50,UACC-62,> 100 µM (inactive)
same,GI50,KM12,> 100 µM (inactive)
same,GI50,SF-295,> 100 µM (inactive)
same,GI50,HOP-92,8.05 µM (inactive)
same,GI50,NCI-H23,> 100 µM (inactive)
same,GI50,OVCAR-8,> 100 µM (inactive)
same,GI50,HCT-116,> 100 µM (inactive)
same,GI50,U-251,> 100 µM (inactive)
same,GI50,ACHN,> 100 µM (inactive)
same,GI50,SK-MEL-28,> 100 µM (inactive)
same,GI50,NCI-H460,> 100 µM (inactive)
same,GI50,CAKI-1,> 100 µM (inactive)
same,GI50,RPMI-8226,> 100 µM (inactive)
same,GI50,CCRF-CEM,> 100 µM (inactive)
same,GI50,LOX IMVI,> 100 µM (inactive)
same,GI50,786-0,76.4 µM (inactive)
same,GI50,HL-60,> 100 µM (inactive)
same,GI50,SF-539,> 100 µM (inactive)
same,GI50,SK-MEL-2,> 100 µM (inactive)
same,GI50,HCT-15,> 100 µM
same,GI50,M14,> 100 µM (inactive)
same,GI50,OVCAR-4,> 100 µM (inactive)
same,GI50,SK-MEL-5,> 100 µM (inactive)
same,GI50,A549,> 100 µM (inactive)
same,GI50,M19-MEL,> 100 µM (inactive)
same,GI50,LXFL 529,> 100 µM (inactive)
same,GI50,SNB-75,51.8 µM (inactive)
same,GI50,RXF 393,> 100 µM (inactive)
same,GI50,NCI-H226,> 100 µM (inactive)
